{"source": "patent US9089572B2", "about": "“Inhibitors of p97” (California Institute of Technology, priority 2008, dated 2015)", "key": {"MRC5-WT": {"tested_on": "MRC5-WT", "assay": "CellTiter-Glo growth inhibition, parental MRC5 cells", "format": "cell-based", "details": "Homo sapiens, 48 h at 37° C., read-out: Cell line inhibition of growth GI50 MRC5-WT"}, "RPMI8226 cells": {"tested_on": "RPMI8226 cells", "assay": "Accumulation of high molecular weight ubiquitin conjugates (anti-ubiquitin immunoblot), RPMI8226 cells", "format": "cell-based", "details": "1 h at 37° C.", "from_the_text": "(§1) To evaluate whether compound 2 can target p97 activity in cells, we sought to determine whether this compound induces accumulation of high molecular weight ubiquitin conjugates, since it is known that RNAi-mediated knockdown of p97 in mammalian cells has this effect (Wojcik, C. et al. J. Cell Sci. (2004) 117, 281-292). As a positive control for this experiment, the proteasome inhibitor MG132 was used. […] The cells were then harvested, lysed, and centrifuged to generate soluble and insoluble fractions. These fractions were then immunoblotted with anti-ubiquitin antibodies to detect accumulation of high molecular weight conjugates. Blots were also probed with anti-PSTAIRE antibodies as a loading control. […] This effect is particularly pronounced in the insoluble fraction.\n(§2) To evaluate whether compound 8 can target p97 activity in cells, it was determined whether this compound induces accumulation of high molecular weight ubiquitin conjugates, since it is known that RNAi-mediated knockdown of p97 in mammalian cells has this effect (Wojcik, C. et al. J. Cell Sci. (2004) 117, 281-292). The proteasome inhibitor bortezomib (velcade) was employed as a positive control for this experiment. HeLa (FIG. 25) or RPMI8226 (FIG. 26) cells were treated with Velcade, compound 8, or a combination thereof for 1 h at 37° C. The cells were then harvested and cell lysates were immunoblotted with anti-ubiquitin antibodies to detect accumulation of high molecular weight conjugates. Blots were also probed with anti-PSTAIRE antibodies as a loading control."}, "HeLa cells": {"tested_on": "HeLa cells", "assay": "Accumulation of high molecular weight ubiquitin conjugates (anti-ubiquitin immunoblot), HeLa cells", "format": "cell-based", "details": "1 h at 37° C.", "from_the_text": "as §1, §2"}, "Ub-G76V-GFP/HeLa cells": {"tested_on": "Ub-G76V-GFP/HeLa cells", "assay": "Degradation of pre-accumulated Ub-G76V-GFP (cycloheximide chase after MG132 washout)", "format": "cell-based", "details": "for % K: relative to 0 μM", "procedure": "To evaluate this possibility, an assay was developed to determine the rate of degradation of pre-accumulated Ub-G76V-GFP molecules. […] Cells were then washed with PBS three times remove the MG132. Cells were then refreshed by adding DMEM containing cycloheximide (50 μg/mL; to block production of more Ub-G76V-GFP) and test compounds (0˜10 μM) were added into cells. Eight 96-well plates were prepared and one of the plates was imaged at 25, 50, 70, 100, 110, 125, 145, or 170 min after washing with PBS three times. After washing out MG132, degradation of pre-accumulated Ub-G76V-GFP appears to follow pseudo-first order reaction. Rate constant (K; 1/min) can be determined from the slope of plotting Ln (Fold Accumulation) versus Time (min) (see FIG. 17 and FIG. 18).\nUb-G76V-GFP/HeLa cells were treated with MG132 (2 μM) for 1 h and washed with PBS three times. DMEM containing cycloheximide (50 μg/mL) and compound 8 (0-10 μM) was added into cells. Eight 96-well plates were prepared and one of the plates was imaged at 25, 50, 70, 100, 110, 125, 145, or 170 min after washing with PBS three times."}, "wild type p97": {"target": "wild type p97 (Mus musculus, UniProt Q01853)", "sequence (Q01853 whole entry)": "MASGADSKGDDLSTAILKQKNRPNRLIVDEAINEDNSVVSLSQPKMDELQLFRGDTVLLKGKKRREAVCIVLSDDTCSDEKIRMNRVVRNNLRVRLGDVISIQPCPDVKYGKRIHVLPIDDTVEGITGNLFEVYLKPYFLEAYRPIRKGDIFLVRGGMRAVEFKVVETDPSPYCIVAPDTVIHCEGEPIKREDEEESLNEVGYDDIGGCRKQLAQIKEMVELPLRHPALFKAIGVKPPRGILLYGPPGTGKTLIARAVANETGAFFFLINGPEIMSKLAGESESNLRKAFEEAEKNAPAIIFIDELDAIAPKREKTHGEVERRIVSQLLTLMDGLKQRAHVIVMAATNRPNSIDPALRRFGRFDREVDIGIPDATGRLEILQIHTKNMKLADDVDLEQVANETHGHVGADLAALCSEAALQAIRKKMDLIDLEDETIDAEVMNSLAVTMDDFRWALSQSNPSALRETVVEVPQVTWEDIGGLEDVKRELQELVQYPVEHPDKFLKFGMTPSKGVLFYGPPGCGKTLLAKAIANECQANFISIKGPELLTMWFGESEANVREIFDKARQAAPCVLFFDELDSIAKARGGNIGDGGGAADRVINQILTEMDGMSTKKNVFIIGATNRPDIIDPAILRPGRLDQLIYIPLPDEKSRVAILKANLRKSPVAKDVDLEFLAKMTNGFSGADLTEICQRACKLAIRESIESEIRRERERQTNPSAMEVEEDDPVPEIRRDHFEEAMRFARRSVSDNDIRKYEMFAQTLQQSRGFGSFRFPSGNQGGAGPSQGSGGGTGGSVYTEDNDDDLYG", "assay": "ATP Kinase glo assay of p97 ATPase activity", "format": "biochemical", "procedure": "An assay that measures the ATPase activity of p97 and that is amenable to high-throughput screening (HTS) was developed based on the commercially-available “Kinase-Glo” assay format, wherein the ATP hydrolytic activity of p97 is monitored by using luciferase to measure the level of residual ATP in a sample following incubation with p97. Using this assay, circa 16,000 compounds were screened to evaluate their effect on the ATP hydrolysis activity of p97. This effort yielded several candidates that inhibit p97 activity. Among the compounds that were identified, one that was of particular interest was compound 8 (9-(2-nitrovinyl) anthracene shown below:\nIt was shown that a key feature of compound 8 is that its mode of inhibition is dependent upon the presence of a cysteine at position 522 in the D2 domain of p97."}, "MRC5-SV40": {"tested_on": "MRC5-SV40", "assay": "CellTiter-Glo growth inhibition, MRC5 cells engineered to express SV40", "format": "cell-based"}, "[1]": {"tested_on": "HEK293 cells that stably expressed TCR-GFP", "assay": "Accumulation of ERAD reporter TCR-alpha-GFP", "format": "cell-based", "details": "2 h at 37° C., fluorescence microscopy", "procedure": "Since p97 has a well-established role in ERAD, it was also determined whether compound 2 affects the accumulation of an ERAD-reporter, TCR-alpha-GFP. HEK293 cells that stably expressed TCR-GFP were treated with MG132 (see FIG. 19), compound 1 or compound 2 (FIG. 20) at the indicated concentrations for 2 h at 37° C. prior to being imaged by fluorescence microscopy to determine TCR-GFP accumulation. […] It was thus concluded that compound 2 inhibits p97 in cells, resulting in the accumulation of both soluble and insoluble high molecular weight ubiquitin conjugates and UPS substrates whose degradation depends upon p97.\nHEK293 cells that stably expressed TCR-GFP were treated with the Velcade (FIG. 30) or compound 8 (FIG. 31) at the indicated concentrations for 2 h at 37° C. prior to being imaged by fluorescence microscopy to quantify TCR-GFP accumulation."}, "[2]": {"tested_on": "HeLa cell line that stably expresses UbG76V-GFP", "assay": "Accumulation of UbG76V-GFP in HeLa cells (fluorescence microscopy)", "format": "cell-based", "details": "1 h at 37° C., fluorescence microscopy", "procedure": "As a control, the same cells were treated with the proteasome inhibitor MG132. In the latter set of experiments, a HeLa cell line that stably expresses UbG76V-GFP was transfected with either wild type (WT), D1 mutant (E305Q), D2 mutant (E578Q) or E305Q, E578Q double mutant (QQ) murine 97-pcDNA4.1 plasmid (0.05 μg/100 μL) in a 96-well plate. After 23 h, the intensity of UbG76V-GFP signal was measured on a Molecular Devices ImageXpress automated fluorescence microscope. […] The direct accumulation of Ub-G76V-GFP caused by compound 2 at 25 μM is 4-fold less than that caused by MG132 at 2 μM. This is likely due to the fact that only fully folded Ub-G76V-GFP should require p97 for degradation by the proteasome.\nAs a second test of whether compound 8 can inhibit p97 in vivo, it was evaluated whether it can cause accumulation of the UbG76V-GFP reporter. A HeLa cell line that stably expresses UbG76V-GFP was treated with compound 8 for 1 h at 37° C., and was then evaluated by fluorescence microscopy. As a control, the same cells were treated with the proteasome inhibitor MG132. […] The level of GFP fluorescence was quantified in cells treated with compound 8 at different doses and for different periods of time (FIG. 28)."}}, "data": [{"smiles": "O=[N+]([O-])C=Cc1c2ccccc2cc2ccccc12", "note": "[Compound 8, 9-(2-nitrovinyl) anthracene]", "values": [{"measurement": "GI50", "setting": "MRC5-WT", "result": "17 ± 9", "unit": "µM"}, {"measurement": "accumulation of high molecular weight ubiquitin conjugates, RPMI8226 cells", "setting": "RPMI8226 cells", "result": "caused accumulation of high molecular weight ubiquitin conjugates"}, {"measurement": "accumulation of high molecular weight ubiquitin conjugates, HeLa cells", "setting": "HeLa cells", "result": "caused accumulation of high molecular weight ubiquitin conjugates"}, {"measurement": "K, rate constant of Ub-G76V-GFP degradation", "setting": "Ub-G76V-GFP/HeLa cells; 0.01 μM", "result": 0.034, "unit": "min⁻¹"}, {"measurement": "% K", "setting": "Ub-G76V-GFP/HeLa cells; 0.01 μM", "result": 89, "unit": "%"}, {"measurement": "K, rate constant of Ub-G76V-GFP degradation", "setting": "Ub-G76V-GFP/HeLa cells; 0.04 μM", "result": 0.033, "unit": "min⁻¹"}, {"measurement": "% K", "setting": "Ub-G76V-GFP/HeLa cells; 0.04 μM", "result": 87, "unit": "%"}, {"measurement": "K, rate constant of Ub-G76V-GFP degradation", "setting": "Ub-G76V-GFP/HeLa cells; 0.16 μM", "result": 0.032, "unit": "min⁻¹"}, {"measurement": "% K", "setting": "Ub-G76V-GFP/HeLa cells; 0.16 μM", "result": 85, "unit": "%"}, {"measurement": "K, rate constant of Ub-G76V-GFP degradation", "setting": "Ub-G76V-GFP/HeLa cells; 0.63 μM", "result": 0.031, "unit": "min⁻¹"}, {"measurement": "% K", "setting": "Ub-G76V-GFP/HeLa cells; 0.63 μM", "result": 81, "unit": "%"}, {"measurement": "K, rate constant of Ub-G76V-GFP degradation", "setting": "Ub-G76V-GFP/HeLa cells; 2.5 μM", "result": 0.027, "unit": "min⁻¹"}, {"measurement": "% K", "setting": "Ub-G76V-GFP/HeLa cells; 2.5 μM", "result": 71, "unit": "%"}, {"measurement": "K, rate constant of Ub-G76V-GFP degradation", "setting": "Ub-G76V-GFP/HeLa cells; 10 μM", "result": 0.023, "unit": "min⁻¹"}, {"measurement": "% K", "setting": "Ub-G76V-GFP/HeLa cells; 10 μM", "result": 60, "unit": "%"}, {"measurement": "IC50", "setting": "Ub-G76V-GFP/HeLa cells; Homo sapiens, HeLa, 1 h, read-out: IC50 on the decay of Ub-G76V-GFP", "result": "10 ± 4", "unit": "µM"}, {"measurement": "inhibition of wild type p97 compared with the C522A-p97 mutant", "setting": "wild type p97", "result": "significantly greater degree"}, {"measurement": "GI50", "setting": "MRC5-SV40; Homo sapiens, MRC5, 48 h at 37° C., CellTiter-Glo, read-out: Cell line inhibition of growth GI50 MRC5-SV40", "result": "5 ± 3", "unit": "µM"}, {"measurement": "greater sensitivity of SV40-transformed cells than WT cell line", "setting": "MRC5-SV40; MRC5-SV40 vs MRC5-WT GI50", "result": 3.4, "unit": "fold"}, {"measurement": "accumulation of TCR-alpha-GFP", "setting": "[1]", "result": "induced accumulation of the ERAD reporter, TCR-alpha-GFP"}, {"measurement": "accumulation of UbG76V-GFP", "setting": "[2]", "result": "caused detectable accumulation of UbG76V-GFP"}]}]}
